Earlier results as cited in patent US20050182136A1, “N-acetylcysteine compositions and methods for the treatment and prevention of endothelial dysfunction” (priority 2004, published 2005).

Key:
[1] = animal experiments, daily NAC dose of 150 mg/kg, over no treatment
[2] = oral NAC, intravenous contrast agents
[3] = patients with end-stage renal failure, 600 mg twice a day
[4] = relative to NAC

Row | Compound | cysteine levels [1] | glutathione levels [1] | increase of serum creatinine after the administration of the contrast agent [2] | various adverse cardiovascular events [3] | bioactive at doses less than NAC [4]
1 | CC(=O)N[C@@H](CS)C(=O)O [NAC, N-acetylcysteine] | substantially increase | substantially increase | significant reduction | significantly reduced | 
2 | CC(=O)N[C@@H](CSSC[C@H](NC(C)=O)C(=O)O)C(=O)O [oxidized form of NAC, di-N-acetylcysteine] |  |  |  |  | 10-100 fold
